“Also recorded” adds a separate entry of the source. Read-outs that look alike come from different tables or passages of the source.
How the values were obtained:
[1] = tested on: SERCA2a SUMOylation; assay: Endogenous SERCA2a SUMOylation, SUMO-1 conjugates and Ubc9 in cardiomyocytes (immunoprecipitation / western blot); assay type: cell-based, Sprague–Dawley rats
Description: Figure 1 N106 increases SERCA2a’s cellular activity and SUMOylation in adult cardiomyocytes. In-vitro characterization of activators of SERCA2a SUMOylation. Cell-based screening of small molecules identified one promising compound. Adult ventricular cardiomyocytes were isolated from Sprague–Dawley rats and treated with small molecules on dose-dependent manner for 24 h. DMSO-treated cardiomyocytes were used as a negative control. (a) Chemical structure of SERCA2a SUMOylation activator. N106, N-(4-methoxybenzo[d]thiazol-2-yl)-5-(4-methoxyphenyl)-1,3,4-oxadiazol-2-amine. (b-g) The effects of N106 compound in cardiomyocyte contractility and calcium transient. The dose-dependent effects of N106 compound presented on peak shortening, the time to maximal departure velocity, the time to maximal return velocity, calcium ratio, decay time constant (τ) and the time to 90% baseline (t90) fluorescence in cardiomyocytes were assessed using a video-based edge-detection system (IonOptix Inc.). n=25 cardiomyocytes from each three of hearts per condition. (h) The effects of N106 compound on the ATPase activity of SERCA2a. The ATPase activity were measured at 25 °C in 50 mM MOPS, 100 mM KCl, 5 mM MgCl2, 1 mM […] at pCa 5.0 by using a coupled enzyme system consisting of pyruvate kinase and lactate dehydrogenase, and monitoring the oxidation of the reduced form of NADH at […]. The enzyme activity was determined by using same set of cardiomyocytes. (i) The effect of N106 compound for the formation of SUMOylated SERCA2a was determined using the same set of cardiomyocytes. Endogenous SERCA2a SUMOylation was detected by immunoprecipitation with anti-SERCA2a and then western blotting with anti-SUMO-1 antibodies. The experiments shown are representative of three independent experiments with similar results. (j) The effect of N106 compound on global SUMOylation was measured by western blot analysis with an anti-SUMO-1 antibody in the same set of cardiomyocytes. The experiments shown are representative of three independent western blottings. Data are represented as mean±s.e.m. (n=3 mice hearts per each condition). Data are represented as mean±s.e.m. *P≤0.05; **P<0.001 (Student’s t-test) from DMSO control.
Protein extracts (20∼50 μg) were obtained from isolated cardiomyocytes, which was lysed in RIPA buffer (R&D Systems Inc., MN, USA) contained protease inhibitors (Complete mini, Roche Diagnostics, IN, USA) and 20 mM NEM (Sigma-Aldrich). For SERCA2a SUMOylation assays, cardiac protein extracts were immunoprecipitated with a SUMO-1 agarose resin (Santa Cruz Biotechnology Inc., CA, USA) for overnight at 4 °C. The resins were washed with cold lysis buffer three times. The immunocomplexes were then resolved by SDS–PAGE and western blot analysis was performed using a SERCA2a-specific antibody. […]
treated with small molecules were determined: peak shortening (b) and calcium transient (c). […]

[2] = Single-dose pharmacokinetic profile; assay type: in vivo, mice; settings: male, mouse, plasma; for Cmax / half-life: 10 mg/kg
Description: The male mice were received with a small molecule N106 at 10 mg kg^−1 intravenously and 10 mg kg^−1 orally (PO). The bloods were corrected at 30 min, 1, 2 and 4 h after administration intravenously and at 30 min, 1, 2 and 4 h after treatment for oral administration studies. Plasma samples from these studies were extracted by plasma separator tube containing lithium heparin (BD Microcontainer, NJ, USA). Plasma concentrations of N106 were determined by HPLC analysis and pharmacokinetic parameters. Three mice for each time point were used.
Supplementary Figure 13. Pharmacokinetic profile of N106 following administration to mice. The murine PK profile of single dose of N106 (10 mg.kg-1) was determined following intravenously (IV) and oral (PO) administration and analysis of plasma samples was performed by high performance liquid chromatography. Data represents mean value of N106 plasma concentrations in mice. n = 3 mice per each time point. Cmax, maximum concentration; T ½, half time; Tmax, time to peak concentration.

Cmax ([2]; iv, mice, 10 mg kg^−1 intravenous): 2240 nM
half-life ([2]; iv, mice, 10 mg kg^−1 intravenous, read-out: half-life): 65.4 min
bioavailability ([2]; oral, 10 mg kg^−1, mice, 10 mg kg^−1 PO vs IV, read-out: oral bioavailability (F%)): 56%
Cmax ([2]; po, mice, 10 mg kg^−1 oral): 457 nM
half-life ([2]; po, mice, 10 mg kg^−1 oral, read-out: terminal elimination half-life (t1/2)): 19 min
Tmax ([2]; mice, 10 mg kg^−1 oral): 30 min
SMILES: COc1ccc(-c2nnc(Nc3nc4c(OC)cccc4s3)o2)cc1 [Compound N106, N-(4-methoxybenzo[d]thiazol-2-yl)-5-(4-methoxyphenyl)-1,3,4-oxadiazol-2-amine]
endogenous SERCA2a SUMOylation ([1]; 10 μM, 24 h): enhancement of endogenous SERCA2a SUMOylation; also recorded: significantly induced
protein levels of E2 conjugation enzyme, Ubc9 ([1]; 10 μM, 24 h): without upregulation of Ubc9
SERCA2a SUMOylation, time course ([1]; 10 μM, 10∼30 min, sustained at 24 h): increased
whole SUMO-1 conjugates ([1]; in response to the concentration of N106, 24 h): increased
levels of SERCA2a SUMOylation ([1]; increasing N106 concentration, 24 h): increased
